Data set [1] has as its system thymus cells. Nature of the data set: Thymus weight and number of thymus cells of aged mice (Example 2). Format: in vivo, mouse. To be noted: 10 mg/kg orally once a day for 7 days; for The number of cells: thymus. Here is the method:
(§1) Mice (35 to 45 weeks old, BALB/cAJc1) preliminary raised for 1 week were injected with 10 mg of ALA hydrochloride per 1 kg mouse body weight once a day for 7 days continuously. ALA hydrochloride was adjusted to a concentration of […] with distilled water and orally administered to the mice. After the test, each mouse was sacrificed and the weight of its thymus and the number of cells were measured. In addition, a subset test of lymphocytes was carried out using the obtained cells. The test was carried out using 5 mice per 1 plot, and their values were shown by average value. […] Also, since the cell of CD4-CD8+ was increased in the ALA-treated plot based on the subset test, it was confirmed that the cytotoxic T cell increases after its future differentiation, so that its immunological function improving ability was shown (Table 3). In addition, photographs of the thymus of untreated plot (un-administered group) and the thymus of ALA-treated plot (ALA-treated group) are shown in FIG. 1.

In data set [2] the test system is CD4-CD8+ cells. Nature of the data set: Subset test of lymphocytes from thymus (Example 2). Format: in vivo, mouse. To be noted: 10 mg/kg orally once a day for 7 days. As to the method: as §1
For data set [3], the system named is superoxide dismutase (SOD). Nature of the data set: SOD activity of thymus tissue (Example 3). Format: in vivo, mouse. The conditions noted are these: 10 mg/kg orally once a day for 7 days. Here is the method: (§2) Mice (35 to 45 weeks old, BALB/cAJc1) preliminary raised for 1 week were injected with 10 mg of ALA hydrochloride per 1 kg mouse body weight once a day for 7 days continuously. ALA hydrochloride was adjusted to a concentration of […] with distilled water and orally administered to the mice. After the test, each mouse was sacrificed and the thymus of mouse was collected to measure superoxide dismutase (SOD) activity of its tissue. To the collected thymus, 1.0 ml of 0.25 M sucrose solution was added, and the mixture homogenized and then centrifuged at 10,000 G for 10 minutes, and the resulting supernatant solution was used as the enzyme solution. The measurement was carried out using an emission reagent for antioxidant ability measurement, MPEC (2-methyl-6-p-methoxyphenylethynylimidazopyrazinone) (manufactured by Atto Corp.). That is, 250 μl of a reaction solution containing 125 μl of 0.1 M potassium phosphate buffer (pH 7.5), 10 μl of the enzyme liquid, 60 μl of 0.1 unit/ml xanthine oxidase, 45 μl of distilled water and 10 μl of 0.3 mM MPEC was dispensed into Luminescencer-PSN (manufactured by Atto Corp.), 50 μl of 0.72 mM hypoxanthine (pH 7.5) was added for emission. For the calculation of emission inhibition ratio, the buffer was used instead of the enzyme liquid. For the calculation, a calibration curve was prepared using standard SOD, and the concentration calculation was carried out using this.
The test was carried out using 5 male and 5 female mice, a total of 10 animals, for each plot, and the values were shown by average value. It was confirmed that the SOD activity or GPx activity is improved in both cases of male and female in the ALA-treated plot.

The subject of data set [4] is glutathione peroxidase (GPx). Nature of the data set: GPx activity of thymus tissue (Example 3). To be noted: 10 mg/kg orally once a day for 7 days. Format: in vivo, mouse. As to the method:
as §2, with “The measurement was carried out using an emission reagent for antioxidant ability measurement, MPEC (2-methyl-6-p-methoxyphenylethynylimidazopyrazinone) (manufactured by Atto Corp.).” left out, “For the calculation of emission inhibition ratio, the buffer was used instead of the enzyme liquid. For the calculation, a calibration curve was prepared using standard SOD, and the concentration calculation was carried out using this.” left out
In addition, glutathione peroxidase (GPx) activity was also measured. […]
The calculation was carried out by the following formula using the molecular extinction coefficient of NADPH of a=6.3 cm^2/μmole, by calculating the slope of straight line ΔOD (ΔOD=Δcm (quantity of change of y axis)×OD Max/full cm) from the chart. […]

Data set [5] has as its system LW·D piglets. Put plainly: Body weight gain of piglets fed ALA hydrochloride for 6 weeks (Example 8). Format: in vivo, pig. From the text:
LW·D piglets produced on the same day at a swinery were purchased 3 times, each time for 14 animals (each 7 animals of castrates and females), and subjected to preliminary raising for 9 to 12 days to confirm that their healthy state is normal, and then 12 animals (each 6 animals of castrates and females) were selected for each time and used in the test. The test plots were set to a total of 3 plots of a control plot in which a control feed (Table 8) without adding ALA hydrochloride is provided, and 2 test plots in which 10 ppm or 50 ppm of ALA hydrochloride is added to the feed and provided. The piglets to be tested were divided into 3 groups, each group including 4 animals (each 2 animals of castrates and females), in such a manner that distribution of body weight became almost uniform, and 1 groups was allotted to each plot and raised for 6 weeks. The swinery used in the test was an open type swinery in which a pig chamber of 1.8×2.7 m concrete floor was arranged in a row of 14 chambers, and group feeding was carried out using adjoining 3 pig chambers for each block. Rice straws were used as the bedding. A warm-keeping box was arranged in each pig chamber for 3 weeks after start of the test. The feed and drinking water were constantly provided. Body weight gain was calculated by measuring individual body weight at intervals of 1 week from the start of the test.

Structures are written as SMILES.

For the compound `NCC(=O)CCC(=O)O` [ALA, 5-aminolevulinic acid], the “Thymus” value in data set [1] (female mice) was found to be 0.044 g; in data set [1] (male mice), 0.034 g. The “The number of cells” value is 49.9 × 10^6 in data set [1] (female mice) and 22.0 × 10^6 in data set [1] (male mice). Further, the “CD4−CD8+ (%)” value in data set [2] (female mice) is listed as 3.25%; in data set [2] (male mice), 5.55%. Further, the SOD activity is 30.7 U/ml in data set [3] (female mice) and 20.2 U/ml in data set [3] (male mice). Further, the “Total SOD activity” value came to 31.84 U/organ in data set [3] (female mice) and 20.95 U/organ in data set [3] (male mice). Further, the GPx activity is given as 0.67 U/ml in data set [4] (female mice) and 0.61 U/ml in data set [4] (male mice). The “Growth (growth curves, body weight gain)” value in data set [5] (10 ppm in feed) and in data set [5] (50 ppm in feed) was “superior growth than the control plot” throughout. Besides, the Health state result in data set [5] (ALA-treated groups, 10 ppm or 50 ppm in feed) was “abnormal health state was not fund”.

Source of the values: patent publication US8790712B2, “Constitutional function-improving agents” (Cosmo Oil Co., Ltd., priority 2004, dated 2014).
